Consider 5 molecules from PMC5234269 (Chemical communications (Cambridge, England), 2015).

Assay [1] concerns the target D2R (Homo sapiens, UniProt P14416). Format: binding.
Assay [2] deals with D3R (Homo sapiens, UniProt P35462). Nature of the assay: Radioligand binding to D3R with and without Na+.
For assay [3], the system named is Tyr(7.43) to Cys mutant receptor. Particulars: mutant vs wild type; cited from earlier work.

Each structure is given as a SMILES string. Several values for one entry are separate records, joined by “and”; a condition that tells them apart may be missing. Equal values may be shown once. Read-outs that look alike come from different tables or passages of the source.

D2R, sequence (P14416 whole entry): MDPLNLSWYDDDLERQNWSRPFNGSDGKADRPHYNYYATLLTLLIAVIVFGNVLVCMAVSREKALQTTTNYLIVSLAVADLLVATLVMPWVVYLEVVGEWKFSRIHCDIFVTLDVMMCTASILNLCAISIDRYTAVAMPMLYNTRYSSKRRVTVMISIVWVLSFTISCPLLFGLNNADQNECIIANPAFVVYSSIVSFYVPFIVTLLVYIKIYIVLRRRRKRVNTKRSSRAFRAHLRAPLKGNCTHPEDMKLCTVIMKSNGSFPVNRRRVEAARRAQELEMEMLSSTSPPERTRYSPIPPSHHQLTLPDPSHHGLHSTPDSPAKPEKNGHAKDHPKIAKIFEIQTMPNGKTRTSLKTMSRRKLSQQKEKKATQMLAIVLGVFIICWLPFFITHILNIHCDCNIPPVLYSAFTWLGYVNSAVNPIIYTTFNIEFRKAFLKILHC
D3R, sequence (P35462 whole entry): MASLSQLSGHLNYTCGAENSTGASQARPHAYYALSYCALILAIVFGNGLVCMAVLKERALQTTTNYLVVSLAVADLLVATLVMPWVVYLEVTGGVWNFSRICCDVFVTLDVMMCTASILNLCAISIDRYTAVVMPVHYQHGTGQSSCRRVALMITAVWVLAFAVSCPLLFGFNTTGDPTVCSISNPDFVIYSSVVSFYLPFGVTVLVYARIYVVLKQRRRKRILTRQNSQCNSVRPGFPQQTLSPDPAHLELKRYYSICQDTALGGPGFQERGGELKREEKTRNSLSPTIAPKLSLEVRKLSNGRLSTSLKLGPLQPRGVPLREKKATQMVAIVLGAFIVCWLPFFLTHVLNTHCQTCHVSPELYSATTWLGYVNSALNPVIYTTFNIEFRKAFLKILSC

Turning to `CCc1cc(Cl)c(OC)c(C(=O)NC[C@@H]2CCCN2CC)c1O` [eticlopride], in assay [1], the “increase of affinity for the D2R in the presence of Na+” value is reported as ~ 3 fold. In addition, in assay [1] (Ki), the Ki (as a rule, the equilibrium dissociation constant of an inhibitor or competing ligand from its target) was 0.67 nM and 0.27 nM. Further, the “effect of Na+ on binding to the D3R” value in assay [2] was “increased”.

Take `CN1CN(c2ccccc2)C2(CCN(CCCC(=O)c3ccc(F)cc3)CC2)C1=O` [methylspiperone]: the “decrease of binding by mutation of Tyr(7.43) to Cys” value in assay [3] is 3 fold. For the molecule `O=C(CCCN1CCC2(CC1)C(=O)NCN2c1ccccc1)c1ccc(F)cc1` [spiperone], in assay [1], the “effect of presence or absence of Na+ on affinity for the D2R” value is listed as “does not affect”.

Regarding `CCN1CCCC1CNC(=O)c1cc(S(N)(=O)=O)ccc1OC` (stereo not drawn) [sulpiride], the “increase of affinity for the D2R in the presence of Na+” value in assay [1] (+Na+ vs -Na+) is recorded as ~ 23 fold. For the same molecule, the “effect of Na+ on binding to the D3R” value in assay [2] (result in words, Fig. S2) was “increased”. In addition, the “decrease of binding by mutation of Tyr(7.43) to Cys” value in assay [3] is given as 185 fold. With `CN(C)CCOC1=Cc2ccccc2Sc2ccc(Cl)cc21` [zotepine], the “decrease of affinity for the D2R in the presence of Na+” value in assay [1] (+Na+ vs -Na+) is recorded as ~ 7 fold.
